Data as given in US4367287A, “Process of producing antibiotic AR-5 complex” (Schering Corporation, priority 1981, dated 1983).
Where two headings read alike, the source gives them in different places.

Tests used:
[1] = test system: M. polytrota; test: Antibiotic susceptibility of producing strain; assay type: cell-based, Micromonospora polytrota; conditions: for Growth in the presence of 50 mcg/ml antibiotic: M. polytrota; for sensitivity of M. polytrota: concentration not given
Procedure: Test antibiotics were dissolved in the appropriate solvent at a concentration based on an activity of 1000 mcg/ml. Stock solutions were diluted in sterile distilled water to a final concentration of 500 mcg/ml and filter sterilized ([…] filters, Millipore Corporation). To 10 ml of the sterile antibiotic solutions, 90 ml of melted agar consisting of yeast extract, 10 g; dextrose, 10 g; agar, 15 g; tap water, 1000 ml; […] cooled to 45° C. was added, and 20 ml of the resulting mixture was aseptically pipetted into sterile petri dishes (100×150 mm). The final concentration of each antibiotic in the agar was 50 mcg/ml.

[2] = test system: Antibiotic AR-5 Sensitive strains; test: In vivo mouse protection test, Antibiotic AR-5 sensitive strains; parameters: species or system male (Carworth CF-1) mice; conditions: for ED50: Mus musculus, Antibiotic AR-5 sensitive strains, number of strains averaged in parentheses, read-out: Mean PD50; for oral potency relative to erythromycin and rosaramicin (fold more potent): in vivo PD50, in general
Procedure: (§1) In vivo mouse protection tests were performed in male (Carworth CF-1) mice weighing 18-20 g each. Infection was with about 10^7 organisms per mouse or sufficient inocula to cause death of control groups 24 to 48 hours after infection. The infecting organisms included strains of Staphylococcus Enterococcus, β-hemolytic Streptococcus and E. coli.

[3] = test system: Antibiotic AR-5 Resistant strains; test: In vivo mouse protection test, Antibiotic AR-5 resistant strains; parameters: species or system male (Carworth CF-1) mice; conditions: read-out: Mean PD50
Procedure: as §1

[4] = Serum levels of the antibiotics; assay type: in vivo; conditions: mice, rats and dogs
Procedure: The serum levels of the respective antibiotics were measured in mice, rats and dogs.

[5] = Acute toxicity in mice; conditions: mouse, in vivo, male CF-1 mice, survivors at 24 and 48 hours
Procedure: The acute toxicity determinations were carried out with groups of male (Carworth CF-1) mice weighing 18-20 g. LD50 values […] the dose that was lethal to 50% of the mice) were calculated by probit analysis based on the number of survivors at 24 and 48 hours after dosing.

Row | Compound | Growth in the presence of 50 mcg/ml antibiotic [1] | ED50 ([2]; sc) [mg/kg] | ED50 ([2]; oral) [mg/kg] | ED50 ([3]; po) [mg/kg] | ED50 ([3]; sc) [mg/kg] | LD50 ([5]; ip) [mg/kg] | LD50 ([5]; iv) [mg/kg] | other results
1 | NC[C@H]1O[C@H](O[C@H]2[C@H](O)[C@@H](O[C@H]3O[C@H](CO)[C@@H](O)[C@H](N)[C@H]3O)[C@H](N)C[C@@H]2N)[C@H](O)[C@@H](O)[C@@H]1O [Kanamycin] | grows | – | – | – | – | – | – | –
2 | CN[C@@H]1[C@@H](O)[C@@H](O[C@@H]2[C@@H](O)[C@H](O[C@H]3OC(CN)=CC[C@H]3N)[C@@H](N)C[C@H]2N)OC[C@]1(C)O [Sisomicin] | grows | – | – | – | – | – | – | –
3 | CCC1OC(=O)/C=C/C(C)C(OC2OC(C)CC(N(C)C)C2O)C(C)CC(C)C(=O)/C=C/C2OC2C1(O)COC1OC(C)C(O)C(OC)C1OC (stereo not drawn) [C, Antibiotic AR-5 component 2] | – | 5.1 | 35.8 | 100 | 100 | 610 | 310 | time of peak serum levels ([4]; versus the other antibiotics tested): produces peak serum levels earlier than any of the other antibiotics tested
4 | CCC1OC(=O)/C=C/C(C)C(OC2OC(C)CC(N(C)C)C2O)C(C)CC(C)C(=O)/C=C/C2OC2C1COC1OC(C)C(O)C(OC)C1OC (stereo not drawn) [A, Antibiotic AR-5 component 1] | – | 4 | 4.1 | 100 | 100 | 310 | 140 | oral potency relative to erythromycin and rosaramicin (fold more potent) ([2]; oral): 30-40 fold; duration of therapeutic serum levels [4]: produces therapeutic serum levels of greater duration
5 | CC[C@H]1OC(=O)C[C@@H](O)[C@H](C)[C@@H](O[C@@H]2O[C@H](C)C[C@H](N(C)C)[C@H]2O)[C@@H](CC=O)C[C@@H](C)C(=O)/C=C/[C@]2(C)O[C@H]2[C@@H]1C [F, Rosaramicin, reference compound] | – | 8.3 | 181 | 400 | 100 | 260 | 175 | LD50 ([5]; oral): 1300 mg/kg; sensitivity of M. polytrota [1]: exhibits sensitivity
6 | CC[C@H]1OC(=O)[C@H](C)[C@@H](O[C@H]2C[C@@](C)(OC)[C@@H](O)[C@H](C)O2)[C@H](C)[C@@H](O[C@@H]2O[C@H](C)C[C@H](N(C)C)[C@H]2O)[C@](C)(O)C[C@@H](C)C(=O)[C@H](C)[C@@H](O)[C@]1(C)O [E, Erythromycin, reference compound] | – | 13.3 | 135 | 400 | 100 | 355 | 260 | –
7 | CCC[C@@H]1C[C@@H](C(=O)N[C@@H]([C@H]2O[C@H](SC)[C@H](O)[C@@H](O)[C@H]2O)[C@H](C)Cl)N(C)C1 [Clindamycin] | grows | – | – | – | – | – | – | –
8 | O=C(N[C@H](CO)[C@H](O)c1ccc([N+](=O)[O-])cc1)C(Cl)Cl [Chloramphenicol] | – | – | – | – | – | – | – | sensitivity of M. polytrota [1]: exhibits sensitivity
9 | CCC1OC(=O)/C=C/C(C)C(OC2OC(C)CC(N(C)C)C2O)C(C)CC(C)C(=O)/C=C/C=C/C1COC1OC(C)C(O)C(OC)C1OC (stereo not drawn) [B, 12,13-desepoxy AR-5 component 1] | – | 2.5 | 3.8 | 100 | 100 | 275 | 160 | oral potency relative to erythromycin and rosaramicin (fold more potent) ([2]; oral): 30-40 fold
10 | CCC[C@@H]1C[C@@H](C(=O)N[C@@H]([C@H]2O[C@H](SC)[C@H](O)[C@@H](O)[C@H]2O)[C@@H](C)O)N(C)C1 [Lincomycin] | grows | – | – | – | – | – | – | –
11 | Gentamicin | grows | – | – | – | – | – | – | –
